Data reported in PMC9019904, “AD Informer Set: Chemical tools to facilitate Alzheimer's disease drug discovery” (Alzheimer's & Dementia : Translational Research & Clinical …, 2022).

Legend:
[1] = tested on: BV2 (mouse microglia) cell line; test: pHrodo-myelin phagocytosis/cell viability high content imaging assay: phagocytosis signal; format: cell-based
Description: (§1) It is important to note that stressed cells, such as those that are dying, are prone to show an increase in phagocytosis. […] MerTK promotes phagocytosis and thus MerTK inhibition is proposed to lead to inhibition of phagocytosis.[47]
(§2) phagocytosis and cell viability simultaneously. High content imaging is performed with the
(§3) (approximately 22 hours after pHrodo-myelin addition). Three measurements are extracted
(§4) intensity increase (early apoptosis) and decrease (later apoptosis), respectively. These
and 3). […]

[2] = tested on: BV2 (mouse microglia) cell line; test: pHrodo-myelin phagocytosis/cell viability high content imaging assay: viability (cell count, nuclear area, nuclear intensity)
Description: (§5) All AD Informer Set compounds were tested in two immortalized microglial cell lines, murine (BV2), and human (HMC3), in a high‐content imaging assay in duplicate by the Chu lab. Experimental details and all data can be found as supporting information files.
(§6) The role of microglia in AD has been well documented and was thus chosen as a cell type in which to profile the AD Informer Set.[43], [44], [45] As an example, neuroinflammation, as detected by the presence of activated complement proteins, interleukins, cytokines, and chemokines in microglia and astrocytes, is increased early in AD and is considered pathogenic due to its chronic nature.[33], [34] Cytotoxic effects can be assessed by considering multiple parameters.
(§7) Microglial viability and phagocytosis studies: The pHrodo-myelin phagocytosis/cell viability assay, modified based on a published method, was run with immortalized BV2 (mouse microglia) and HMC3 (human microglia) cell lines in the Chu lab at IUSM. The 384-well plate high content analysis assay with BV2 and HMC3 microglial cell lines is used to quantify both phagocytosis and cell viability simultaneously. High content imaging is performed with the ArrayScan automatic imaging system and imaging analysis done with the software on the system. After allowing cells to adhere overnight, they are treated with compounds for total 48 hours including final 20 hours seeded with pHrodo-myelin (labeled phagocytosis ligand, purified […]
(§8) (approximately 22 hours after pHrodo-myelin addition). Three measurements are extracted from the assay: 1) phagocytosis signal by mean total phagocytosis spot intensity per cell, 2) total cell counts per well as the main measurement of cell viability, and 3) mean average nuclear intensity per cell as profiling of cell health since apoptotic cells showing nuclear intensity increase (early apoptosis) and decrease (later apoptosis), respectively. These measurements allow for evaluation of compound-induced phagocytosis (1) and cytotoxicity (2 and 3). Assays were carried out at a single concentration (10 μM). Idelalisib (10 μM) and cytochalasin-D (4 μM) were used as positive controls in the assay. All data, which was an average of 2 data points, was normalized to untreated wells and reported as % control, which is included in the Supporting Information both as a raw data file and summarized in the compound/gene-annotation file.

[3] = tested on: HMC3 (human microglia) cell line; test: as above
Description: as §5, §6, §7, §8

[4] = tested on: HMC3 (human microglia) cell line; test: pHrodo-myelin phagocytosis/cell viability high content imaging assay: phagocytosis signal; format: cell-based
Description: as §1, §2, §3, §4
and 3). […]

[5] = BV2, compound 10 uM, 48 hours treatment
[6] = HMC3, compound 10 uM, 48 hours treatment
[7] = BV2, compound 10 uM, pHrodo-myelin
[8] = HMC3, compound 10 uM, pHrodo-myelin
[9] = BV2 cells, 10 uM compound, 48 hours treatment
[10] = HMC3 cells, 10 uM compound, 48 hours treatment
[11] = BV2 cells, 10 uM compound, 48 hours treatment, pHrodo-myelin final 20 hours
[12] = HMC3 cells, 10 uM compound, 48 hours treatment, pHrodo-myelin final 20 hours

SMILES: Cc1cc(O)cc2c1[C@]1(C)CC[C@H]3C(C)(C)CCC[C@]3(C)[C@H]1C2 [AQX-MN100]
- Stimulation of mouse microglial phagocytosis at 10 μM (>150% control) ([1]; 10 μM, BV2): Y (The compound was found to stimulate phagocytosis (response threshold: >150% control) when murine immortalized microglial cells were dosed at 10 μM (Y: yes))

SMILES: C=C1[C@@H](C)[C@H]2[C@H](Cc3ccccc3)NC(=O)[C@]23[C@H](OC(C)=O)/C=C/[C@@](C)(O)C(=O)[C@@H](C)C/C=C/[C@H]3[C@@H]1O [Cytochalasin-D]
- 1. Cell count (% control) ([2]; BV2, control compound at 4uM): 9.1 % control
- 2. Nuclear Area (% Control) ([2]; BV2, control compound at 4uM): 119.3 % Control
- 3. Nuclear DNA Intensity (% control) ([2]; BV2, control compound at 4uM): 141.3 % control
- 1. Cell count (% control) ([3]; HMC3, control compound at 4uM): 57.1 % control
- 2. Nuclear Area (% Control) ([3]; HMC3, control compound at 4uM): 76.9 % Control
- 3. Nuclear DNA Intensity (% control) ([3]; HMC3, control compound at 4uM): 178.9 % control
- 4. Phagocytosis (% control) ([1]; BV2, control compound at 4uM, pHrodo-myelin): 18.4 % control
- 4. Phagocytosis (% control) ([4]; HMC3, control compound at 4uM, pHrodo-myelin): 4.8 % control

SMILES: CC[C@H](Nc1ncnc2[nH]cnc12)c1nc2cccc(F)c2c(=O)n1-c1ccccc1 [Idelalisib]
- 1. Cell count (% control) [2, 5]: 17.2 % control
- 2. Nuclear Area (% Control) [2, 5]: 138.0 % Control
- 3. Nuclear DNA Intensity (% control) [2, 5]: 108.4 % control
- 1. Cell count (% control) [3, 6]: 61.4 % control
- 2. Nuclear Area (% Control) [3, 6]: 105.8 % Control
- 3. Nuclear DNA Intensity (% control) [3, 6]: 124.0 % control
- 4. Phagocytosis (% control) [1, 7]: 107.9 % control
- 4. Phagocytosis (% control) [4, 8]: 5.6 % control

SMILES: COc1ccc(/C=C/C(=O)c2ccc(OC)cc2OC)cc1 [Metochalcone]
- Human microglial cytotoxicity at 10 μM (<70% control) ([3]; HMC3, 10 μM, cell count <70% control): Y (The compound was found to be cytotoxic (cell count threshold: <70% control) when human immortalized microglial cells were dosed at 10 μM (Y: yes))
- Stimulation of mouse microglial phagocytosis at 10 μM (>150% control) ([1]; BV2, 10 μM): Y (The compound was found to stimulate phagocytosis (response threshold: >150% control) when murine immortalized microglial cells were dosed at 10 μM (Y: yes))

SMILES: C=C1C(=O)[C@]23[C@H](O)[C@H]1CC[C@H]2[C@@]12CO[C@]3(O)[C@@H](O)[C@@H]1C(C)(C)CC[C@@H]2O [Oridonin]
- Mouse microglial cytotoxicity at 10 μM (<70% control) ([2]; BV2): Y (The compound was found to be cytotoxic (cell count threshold: <70% control) when murine immortalized microglial cells were dosed at 10 μM (Y: yes))
- Human microglial cytotoxicity at 10 μM (<70% control) ([3]; 10 μM, HMC3): Y (The compound was found to be cytotoxic (cell count threshold: <70% control) when human immortalized microglial cells were dosed at 10 μM (Y: yes))
- Stimulation of mouse microglial phagocytosis at 10 μM (>150% control) ([1]; 10 μM, BV2): Y (The compound was found to stimulate phagocytosis (response threshold: >150% control) when murine immortalized microglial cells were dosed at 10 μM (Y: yes))
- Inhibition of human microglial phagocytosis at 10 μM (<70% control) ([4]; HMC3): Y (The compound was found to inhibit phagocytosis (response threshold: <70% control) when human immortalized microglial cells were dosed at 10 μM (Y: yes))

SMILES: O=c1ccc2c(OCCCCOc3ccccc3)c3ccoc3cc2o1 [PAP-1 (5-(4-Phenoxybutoxy)psoralen)]
- Stimulation of mouse microglial phagocytosis at 10 μM (>150% control) ([1]; 10 μM, BV2): Y (The compound was found to stimulate phagocytosis (response threshold: >150% control) when murine immortalized microglial cells were dosed at 10 μM (Y: yes))

SMILES: COc1cc([C@@H]2c3cc4c(cc3[C@H](O)[C@H]3COC(=O)[C@H]23)OCO4)cc(OC)c1OC [Podofilox]
- Mouse microglial cytotoxicity at 10 μM (<70% control) ([2]; BV2): Y (The compound was found to be cytotoxic (cell count threshold: <70% control) when murine immortalized microglial cells were dosed at 10 μM (Y: yes))
- Human microglial cytotoxicity at 10 μM (<70% control) ([3]; 10 μM, HMC3): Y (The compound was found to be cytotoxic (cell count threshold: <70% control) when human immortalized microglial cells were dosed at 10 μM (Y: yes))
- Stimulation of mouse microglial phagocytosis at 10 μM (>150% control) ([1]; 10 μM, BV2): Y (The compound was found to stimulate phagocytosis (response threshold: >150% control) when murine immortalized microglial cells were dosed at 10 μM (Y: yes))
- Inhibition of human microglial phagocytosis at 10 μM (<70% control) ([4]; HMC3): Y (The compound was found to inhibit phagocytosis (response threshold: <70% control) when human immortalized microglial cells were dosed at 10 μM (Y: yes))

SMILES: O=c1ccc2c(OCCCCc3ccccc3)c3ccoc3cc2o1 [Psora-4 (5-(4-Phenylbutoxy)psoralen)]
- Stimulation of mouse microglial phagocytosis at 10 μM (>150% control) ([1]; 10 μM, BV2): Y (The compound was found to stimulate phagocytosis (response threshold: >150% control) when murine immortalized microglial cells were dosed at 10 μM (Y: yes))
- Inhibition of human microglial phagocytosis at 10 μM (<70% control) ([4]; HMC3): Y (The compound was found to inhibit phagocytosis (response threshold: <70% control) when human immortalized microglial cells were dosed at 10 μM (Y: yes))

SMILES: CC/C(=C(\c1ccccc1)c1ccc(OCCN(C)C)cc1)c1ccccc1 [Tamoxifen]
- Stimulation of mouse microglial phagocytosis at 10 μM (>150% control) ([1]; BV2, 10 μM): Y (The compound was found to stimulate phagocytosis (response threshold: >150% control) when murine immortalized microglial cells were dosed at 10 μM (Y: yes))

SMILES: Clc1ccc(N/N=C(\c2ccccc2)c2ccccn2)nc1 [UNC3735A]
- 1. Cell count (% control) [2, 9]: 27.9 % control
- 2. Nuclear Area (% Control) [2, 9]: 119.6 % Control
- 3. Nuclear DNA Intensity (% control) [2, 9]: 94.7 % control
- 1. Cell count (% control) [3, 10]: 86.4 % control
- 2. Nuclear Area (% Control) [3, 10]: 86.7 % Control
- 3. Nuclear DNA Intensity (% control) [3, 10]: 135.7 % control
- 4. Phagocytosis (% control) [1, 11]: 273.4 % control
- 4. Phagocytosis (% control) [4, 12]: 104.5 % control

SMILES: Cn1nccc1Nc1nccc(-c2ccn([C@H](CO)c3ccc(Cl)c(F)c3)c(=O)c2)n1 [UNC8131A]
- 1. Cell count (% control) [2, 5]: 15.3 % control
- 2. Nuclear Area (% Control) [2, 5]: 134.5 % Control
- 3. Nuclear DNA Intensity (% control) [2, 5]: 44.7 % control
- 1. Cell count (% control) [3, 6]: 54.4 % control
- 2. Nuclear Area (% Control) [3, 6]: 77.5 % Control
- 3. Nuclear DNA Intensity (% control) [3, 6]: 167.5 % control
- 4. Phagocytosis (% control) [1, 7]: 0.00107 % control
- 4. Phagocytosis (% control) [4, 8]: 12.1 % control

SMILES: O=C(O)CCCc1nc(-c2ccc(Cl)c(Cl)c2)c(-c2ccccc2)o1 [UNC8366A]
- 1. Cell count (% control) [2, 5]: 118.0 % control
- 2. Nuclear Area (% Control) [2, 5]: 106.9 % Control
- 3. Nuclear DNA Intensity (% control) [2, 5]: 102.3 % control
- 1. Cell count (% control) [3, 6]: 151.8 % control
- 2. Nuclear Area (% Control) [3, 6]: 102.0 % Control
- 3. Nuclear DNA Intensity (% control) [3, 6]: 90.3 % control
- 4. Phagocytosis (% control) [1, 7]: 161.9 % control
- 4. Phagocytosis (% control) [4, 8]: 67.3 % control

SMILES: CCCCCCCCCCCCCCCCOCC(COCC(F)(F)F)OP(=O)([O-])OC.[Li+] (stereo not drawn) [UNC8441A]
- 1. Cell count (% control) [2, 5]: 80.6 % control
- 2. Nuclear Area (% Control) [2, 5]: 107.7 % Control
- 3. Nuclear DNA Intensity (% control) [2, 5]: 98.9 % control
- 1. Cell count (% control) [3, 6]: 76.1 % control
- 2. Nuclear Area (% Control) [3, 6]: 97.9 % Control
- 3. Nuclear DNA Intensity (% control) [3, 6]: 109.2 % control
- 4. Phagocytosis (% control) [1, 7]: 99.7 % control
- 4. Phagocytosis (% control) [4, 8]: 43.1 % control

SMILES: O=c1ccc2c(OCCCCc3ccccc3)c3ccoc3cc2o1 [UNC10100197A]
- 1. Cell count (% control) [2, 5]: 106.2 % control
- 2. Nuclear Area (% Control) [2, 5]: 106.9 % Control
- 3. Nuclear DNA Intensity (% control) [2, 5]: 106.7 % control
- 1. Cell count (% control) [3, 6]: 124.6 % control
- 2. Nuclear Area (% Control) [3, 6]: 99.9 % Control
- 3. Nuclear DNA Intensity (% control) [3, 6]: 93.8 % control
- 4. Phagocytosis (% control) [1, 7]: 195.3 % control
- 4. Phagocytosis (% control) [4, 8]: 60.7 % control

SMILES: CC(=O)O.Cc1c(-c2ccc(O)cc2)n(Cc2ccc(OCCN3CCCCCC3)cc2)c2ccc(O)cc12 [UNC10245115A]
- 4. Phagocytosis (% control) [1, 11]: 0.00966 % control
- 4. Phagocytosis (% control) [4, 12]: 0.00872 % control

SMILES: CC(C)CCOc1ccc(N)cc1 [UNC10302876A]
- 4. Phagocytosis (% control) [1, 11]: 110.6 % control
- 4. Phagocytosis (% control) [4, 12]: 89.8 % control

SMILES: O=C(NC12C[C@H]3C[C@@H](C1)C[C@@H](C2)C3)N[C@H]1CC[C@H](Oc2ccc(C(=O)O)cc2)CC1 [UNC10303108A]
- 4. Phagocytosis (% control) [1, 11]: 153.6 % control
- 4. Phagocytosis (% control) [4, 12]: 109.9 % control

SMILES: O=C(NC12C[C@H]3C[C@@H](C1)C[C@@H](C2)C3)N[C@H]1CC[C@H](Oc2ccc(C(=O)O)cc2)CC1 [t-AUCB]
- Stimulation of mouse microglial phagocytosis at 10 μM (>150% control) ([1]; BV2, 10 μM): Y (The compound was found to stimulate phagocytosis (response threshold: >150% control) when murine immortalized microglial cells were dosed at 10 μM (Y: yes))
